# Assay results published in patent US20240173276A1, “METHODS AND COMPOSITIONS FOR INHIBITING FORMATION OF THE HIV LATENT RESERVOIR” (The University of North Carolina at Chapel Hill, priority 2021, published 2024).
# Experiments:
# [1] = tested on: HIV-GFP infected primary CD4 T cells; experiment: Primary CD4 T cell latency model (HIV-GFP reporter, flow cytometry of GFP- cells); assay type: cell-based, human; details: for effect on the formation of latently infected (GFP-) cells: cultured in the presence of inhibitor from 2 dpi for up to 4 weeks, FIG. 1B
# Text: Viruses and cell culture: Stocks of HIV-GFP were generated by co-transfection of 293T cells with the pNL4-3-Δ6-dreGFP plasmid (generous gift of Robert Siliciano) and the packaging plasmids PAX2-GagPol) and MD2-VSVG, using Mirus LT1 reagent. At 2 days post transfection virus was harvested from the supernatant and clarified by low speed centrifugation, followed by filtration through a […] filter.
# Primary cell latency model: Primary CD4 T cells were isolated from fresh whole blood (purchased from Gulf Coast Regional Blood Center) by Ficoll isolation of peripheral blood mononuclear cells (PBMCs), then magnetic negative selection of CD4 T cells using a CD4 enrichment kit (Stem Cell). Total primary CD4 T cells were activated using anti-CD3/CD28 beads (Thermo Fisher) at a ratio of one bead per cell for 2 days, then infected with HIV-GFP viral supernatant by spinocculation for 2 hrs at 600 g with 4 µg/mL polybrene. The infected cells were then resuspended in fresh RPMI with IL-2 (Peprotech) at 100 U/mL and incubated for two days before actively infected (GFP^+) cells were sorted using a FACSAria flow sorter (Becton Dickson). The purified infected cells (GFP^+) were then maintained at 1-2 million/mL with fresh media and IL-2 added every 2-3 days for 2 weeks. […] Other small molecule inhibitors were purchased from commercial vendors.
# HIV latency is regulated by covalent modifications to provirus-associated histones that can promote or repress transcription. These modifications are mediated by a set of host cell enzyme complexes, including histone acetyl transferases (HATs), histone deacetylases (HDACs), histone methyltransferases (HMTs) and histone demethylases (HDMs). To investigate the role of these complexes in the establishment of HIV latency a primary CD4 T cell model of latency was examined. In this model, activated CD4 T cells are infected with a GFP expressing reporter strain of HIV. At 2 dpi, actively infected cells (GFP^+) are sorted to obtain a pure actively infected population, then cultured for 3-4 weeks (FIG. 1A). […] To examine the role of specific histone modifying enzymes in this system, actively infected (GFP^+) cells were isolated at 2 dpi and the cells cultured in the presence of a panel of inhibitors targeting chromatin modifying complexes. […] The infected cells were cultured in the presence of each inhibitor for up to 4 weeks. Each week post infection, the emergence of the latently infected (GFP^−) population was measured by flow cytometry (FIG. 1B).
# [2] = tested on: HIV-dreGFP/Thy1.2 infected primary CD4 T cells; experiment: HDAC selective inhibitor experiments in HIV-dreGFP/Thy1.2 infected CD4 T cells (viral gene expression by flow cytometry); assay type: cell-based, human; details: cultured 14 d in the presence of inhibitor; FIG. 7B
# Text: FIGS. 7A-7D show Class I HDAC selective inhibitors reveal druggable dependency on HDAC1 and 2 in latency initiation. A. Schematic overview of HDAC selective inhibitor experiments. […] B. Dose response curve showing the proportion of cells with productive viral gene expression after two weeks of treatment with the indicated inhibitors. Data shown are from one representative cell donor conducted in technical triplicate. C. Time course flow cytometry experiment in HIV-GFP/Thy1.2 infected primary CD4 T cells cultured with the indicated inhibitors. […] D. Mean fluorescent intensity (MFI) of GFP signal in Thy1.2+ cells in data from C. Data shown are representative of three independent experiments.
# However, the contribution and roles of individual HDACs are largely unknown. Because of the high homology of HDAC1 and HDAC2 in the enzyme activation site, selective inhibitors for HDAC1 or HDAC2 have not been developed. Thus, the impact of novel small molecules that inhibit both HDAC1 and HDAC2 (HDAC1/2i) or HDAC3 (HDAC3i) on HIV silencing in CD4 T cells was examined. Activated CD4 T cells were infected with HIV-dreGFP/Thy1.2 and cultured for 14 d in the presence of each inhibitor, and viral gene expression was measured by flow cytometry (FIG. 7A).
# [3] = tested on: HIV-eGFP infected CD4 T cells; experiment: Surface marker phenotype of HIV infected CD4 T cells by flow cytometry; assay type: cell-based, human; details: vorinostat exposure post stimulation, vs DMSO, FIG. 4
# Procedure: HIV gene expression is regulated by a set of host cell transcription factors that vary in activity as CD4 T cells adopt different activation states and sub-lineage identities post activation. […] To investigate this possibility, flow cytometry was performed to examine the surface marker phenotype of HIV infected cells.
# [4] = previous clinical studies, vorinostat dosing; cited from earlier work
compound,measurement,setting,value
"Nc1ncnc2c1ncn2[C@@H]1O[C@H](C[C@@H](N)CC[C@H](N)C(=O)O)[C@@H](O)[C@H]1O [Singefungin, sinefungin]",effect on the formation of latently infected (GFP-) cells,[1],no significant effect
COc1cc2nc(N3CCCN(C)CC3)nc(NC3CCN(Cc4ccccc4)CC3)c2cc1OC [BIX1294],effect on the formation of latently infected (GFP-) cells,[1],modest reduction in the percentage of latently infected cells
CC(C)N(C[C@H]1O[C@@H](n2cnc3c(N)ncnc32)[C@H](O)[C@@H]1O)[C@H]1C[C@@H](CCc2nc3cc(C(C)(C)C)ccc3[nH]2)C1 [pinometostat],effect on the formation of latently infected (GFP-) cells,[1],no significant effect
Nc1cc(F)ccc1NC(=O)/C=C/c1cnn(C/C=C/c2ccccc2)c1 [RGFP966],"latency prevention (prevention of HIV silencing), dose response",[2],much lower extent
O=C(CCCCCCC(=O)Nc1ccccc1)NO [vorinostat],GFP status of treated cells after removal of vorinostat,"[1]; 2 weeks vorinostat, then 2 weeks culture without vorinostat, FIG. 2A",remained mostly GFP^−
same,percentage of latent (GFP-) cells,"[1]; 3 weeks post infection, in the presence of vorinostat, DMSO 70%",10%
same,reduction of latent (GFP-) population vs vehicle (DMSO),"[1]; 3 weeks post infection, from 70% (DMSO) to 10%",7 fold
same,"impact on HIV latency, vorinostat in media 0-14 days post infection","[1]; add in / wash out, latently infected cells measured at 3 wpi, FIG. 2B",significant impact
same,"impact on frequency of latently infected cells, addition or removal between 14 dpi and 21 dpi","[1]; add in / wash out, measured at 3 wpi, FIG. 2B",little impact
same,"emergence of latently infected cells, continuous exposure","[1]; continuous vorinostat 500 nM, 3 weeks post infection, FIG. 1C",potently prevented the emergence of latently infected cells
same,effect on the formation of latently infected (GFP-) cells,[1],potently inhibited the emergence of a latent (GFP^−) population
same,"establishment of latency, pulsatile exposure","[1]; daily 6 h pulse of vorinostat 500 nM followed by 18 h wash-out, 3 weeks, FIG. 1C",significantly block the establishment of latency in a subset of cells
same,suppression of HIV latency over a range of concentrations,"[1]; exposure for two weeks to different vorinostat concentrations, FIG. 2A",clear dose-dependent fashion
same,fraction of cells with central memory phenotype (CD45RA- CCR7+),[3]; 2-3 weeks post infection,increased fraction
same,expression of CD4 T cell activation marker PD-1,[3],did not lead to increased expression
same,time of declining concentrations,[4],6 to 24 h
same,time of peak concentrations,[4],2 to 6 h
CCCc1cc(C)[nH]c(=O)c1CNC(=O)c1cc(-c2ccc(N3CCN(C(C)C)CC3)nc2)cc2c1cnn2C(C)C [UNC1999],effect on the formation of latently infected (GFP-) cells,[1],modest reduction in the percentage of latently infected cells
